Results as given in US20210106649A1, “SYNERGISTIC COMBINATION OF CHEMOTHERAPY AND PEPTIDE FOR TREATING CANCER” (TOBEBIO Novel Drug Laboratory Co., Ltd., priority 2019, published 2021).
Ends that are not written are not given here.

Test system: AsPC-1 pancreatic cancer cells
Assay: Survival analysis of AsPC-1 pancreatic cancer orthotopic mice model
Format: in vivo, athymic nude mice
Details: alloferon-1 2.5 mg/kg daily s.c.; paclitaxel 8 mg/kg weekly i.p.; orthotopic AsPC-1 nude mice
Description: AsPC-1, human pancreas adenocarcinoma cell line, was purchased from American Type Culture Collection (ATCC) and maintained in a complete Eagle's minimal essential medium (MEM) medium supplemented with 10% fetal bovine serum (FBS) (Hyclone), non-essential amino acid, sodium pyruvate, penicillin-streptomycin and vitamin solution (Life Technologies). AsPC-1 cells were incubated at 37° C. in a mixture atmosphere of 5% CO2 and 95% […]. Cell lines were authenticated via short tandem repeat (STR) profiling (Cosmogenetech).
The number of survival days for all animals was recorded and statistical analysis was performed using the GraphPad Prism 8. Kaplan-Meier survival plots were analyzed with the Log-rank (Mantel-Cox) test to compare survival rates between groups. A probability (P) value of <0.05 or lower was considered statistically significant.

Row | Compound | Median survival
1 | CC(=O)O[C@H]1C(=O)[C@@]2(C)[C@H]([C@H](OC(=O)c3ccccc3)[C@]3(O)C[C@H](OC(=O)[C@H](O)[C@@H](NC(=O)c4ccccc4)c4ccccc4)C(C)=C1C3(C)C)[C@]1(OC(C)=O)CO[C@@H]1C[C@@H]2O [Paclitaxel, paclitaxel] | 107 days
2 | HGVSGHGQHGVHG [Alloferon-1] | 91 days
